Reference: patent publication US5573908A, “Adrenergic receptor as a proto-oncogene” (Duke University, priority 1993, dated 1996)
Where a chain is given by its changes, count along the chain named. “And” between values parts separate entries of the source, which are not always exact repeats. Equal entries are not always repeated. “Also recorded” adds a separate entry of the source. Where two headings read alike, the source gives them in different places.

Legend:
[1] = test system: RAT-1 fibroblast cell line derived from a single transformed focus expressing the α1B -ADR; test: Morphology of focus-derived RAT-1 fibroblast cell line expressing the α1B-ADR; assay type: cell-based; settings: 10 μM NE and 1 μM prazosin, 36 hours
[2] = test system: RAT-1 fibroblasts transfected with α1B -ADR c-DNA; test: Focus formation in RAT-1 fibroblasts transfected with α1B-ADR c-DNA; assay type: cell-based; settings: focus-derived RAT-1 cell lines; data not shown
Protocol: Transfection was carried out as follows: RAT-1 fibroblasts were seeded at a density of 2×10^5 cells in Dulbecco's modified Eagle's medium (DMEM) (Gibco) containing 5% fetal bovine serum (FBS) in 100 mm dishes. […] After 16 hours, the DNA precipitate was removed, the cells washed and grown for 24 hours in complete medium. Cells were split 1:5, allowed to attach overnight and then cultured in DMEM with 5% FBS alone, supplemented with 10 μM norepinephrine (NE) or G418 (300 μg/ml). Dishes were supplemented with NE daily, and fed every 3 days with fresh medium.

α1B ADR mutant = molecular target: T1, α1B ADR mutant (Mesocricetus auratus, UniProt P18841, A293L/K290H/R288K); test: Ligand binding on membranes of RAT-1 fibroblast cell lines expressing the α1B ADR mutant; design: species or system hamster; settings: two clones
T1 construct: expressed in transfected cells; host or cells: RAT-1 fibroblasts (vector pZIP-NeoSV(X)1), focus-derived, G418-selected lines
T1 sequence (P18841 1-515 R288K/K290H/A293L): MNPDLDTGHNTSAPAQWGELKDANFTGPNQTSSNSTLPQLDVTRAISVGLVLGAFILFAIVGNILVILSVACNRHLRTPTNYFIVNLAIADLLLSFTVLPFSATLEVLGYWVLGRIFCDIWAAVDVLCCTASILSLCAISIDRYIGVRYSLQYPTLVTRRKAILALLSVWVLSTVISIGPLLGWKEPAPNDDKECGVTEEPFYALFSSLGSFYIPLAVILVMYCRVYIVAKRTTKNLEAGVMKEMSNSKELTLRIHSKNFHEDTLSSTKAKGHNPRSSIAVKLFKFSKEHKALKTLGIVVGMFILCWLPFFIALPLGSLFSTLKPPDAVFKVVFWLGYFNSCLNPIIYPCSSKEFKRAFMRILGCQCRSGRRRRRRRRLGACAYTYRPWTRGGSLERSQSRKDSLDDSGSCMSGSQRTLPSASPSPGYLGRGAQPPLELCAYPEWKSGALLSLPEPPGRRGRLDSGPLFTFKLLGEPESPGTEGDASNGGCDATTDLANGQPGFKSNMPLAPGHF
Protocol: (§1) In Table 3, RAT-1 fibroblast cell lines transfected with expression vector alone or derived from transformed foci (α1B ADR or α1B ADR mutant) were selected with G418 (300 μg/ml). Ligand binding was performed on membranes prepared from two clones of each in accordance with known techniques (S. Cotecchia et al., Life Sci. 37, 2389 (1986)). For saturation binding analysis, [^125 ] HEAT concentrations ranged from 10 to 500 pM, nonspecific binding was determined using 1 μM prazosin; in competition experiments, the radioligand concentration was 100 pM. Ligand binding parameters were determined using computerized iterative nonlinear regression analysis (P. Munson, Methods in Enzymol. 92, 5432 (1983)). For assessment of receptor coupling to PI hydrolysis, cells were plated in 30 mm dishes, and labeled overnight with 3 μCi/ml of myo-[2-^3 II(N)]-inositol (1Ci=37 GBq; NEN Research Products) in DMEM containing 3.3% FBS in accordance with known techniques (S. Cotecchia et al., Proc. Natl. Acad. Sci. USA 87, 2896 (1990)). After 40 minute stimulation of cells with 10 μM norepinephrine (NE), inositol phosphates were extracted, and separated on AG 1-X8 anion exchange columns (BioRad Labs) in accordance with known techniques (S. Cotecchia et al., Proc. Natl. Acad. Sci. USA 87, 2896 (1990)). Total inositol phosphates were eluted with 1M ammonium formate/0.1M formic acid. Rmax indicates the percentage increase of total labeled inositol phosphates over basal levels following NE stimulation.

α1B ADR = molecular target: T2, α1B ADR (Mesocricetus auratus, UniProt P18841); test: Ligand binding on membranes of RAT-1 fibroblast cell lines expressing the α1B ADR; design: species or system hamster; settings: two clones
T2 construct: expressed in transfected cells; host or cells: RAT-1 fibroblasts (vector pZIP-NeoSV(X)1), focus-derived, G418-selected lines
T2 sequence (P18841 1-515): T1 sequence (P18841 1-515 R288K/K290H/A293L) with K288R, H290K, L293A
Protocol: as §1

[3] = serum free medium, data not shown
[4] = saturation binding 10 to 500 pM, nonspecific binding with 1 μM prazosin, read-out: [125I] HEAT Kd

c1ccc2c(c1)OCC(C1=NCCN1)O2 (stereo not shown) [idazoxan]
blockade of NE-induced increase in DNA synthetic activity (α1B -ADR; [3]): not

COc1cc2nc(N3CCN(C(=O)c4ccco4)CC3)nc(N)c2cc1OC [prazosin]
blockade of NE-induced increase in DNA synthetic activity (α1B -ADR): could be blocked | effect of concurrent antagonist on agonist-induced transformation (morphology) [1]: blocked agonist-induced transformation; also recorded: reverted the cells to the untransformed phenotype | inhibition of agonist-dependent focus formation by concurrent antagonist [2]: could be inhibited

COC(=O)[C@@H]1[C@H]2C[C@H]3c4[nH]c5ccccc5c4CCN3C[C@@H]2CC[C@@H]1O [yohimbine]
blockade of NE-induced increase in DNA synthetic activity (α1B -ADR): not

O=C1c2ccccc2CCC1CNCCc1ccc(O)c([125I])c1 (stereo not shown) [[^125 I] HEAT, 2{b-(4-hydroxy-3-[^125 I]iodophenyl)ethylaminomethyl}-tetralone]
Kd (α1B ADR mutant; [4]): 0.0379 nM and 0.0463 nM | [125I] HEAT Bmax (α1B ADR mutant; saturation binding): 2.2 pmol/mg and 2.6 pmol/mg | Kd (α1B ADR; [4]): 0.0441 nM and 0.0383 nM | [125I] HEAT Bmax (α1B ADR; saturation binding): 5.1 pmol/mg and 2.7 pmol/mg

CC(C)NCC(O)COc1cccc2ccccc12 (stereo not shown) [propranolol]
blockade of NE-induced increase in DNA synthetic activity (α1B -ADR; [3]): not
